Data published in ChEMBL document CHEMBL4382294, “Synthesis of a 6-Aza-Isoindolinone-Based Inhibitor of Phosphoinositide 3-Kinase γ via Ruthenium-Catalyzed [2 + 2 + 2] Cyclotrimerization” (ACS Med Chem Lett, 2019).
pIC50, pKi: −log10 of the molar value.

Assays:
Homo sapiens [1] = species: Homo sapiens; test: Selectivity ratio of IC50 for PI3Kdelta (unknown origin) to IC50 for PI3Kgamma (unknown origin)
Homo sapiens [2] = species: Homo sapiens; test: Selectivity ratio of IC50 for PI3Kalpha (unknown origin) to IC50 for PI3Kgamma (unknown origin)
Homo sapiens [3] = species: Homo sapiens; test: Selectivity ratio of IC50 for PI3Kbeta (unknown origin) to IC50 for PI3Kgamma (unknown origin)
[4] = molecular target: T1, Phosphatidylinositol 4,5-bisphosphate 3-kinase catalytic subunit gamma isoform (Homo sapiens, UniProt P48736); test: Inhibition of PI3Kgamma in human THP1 cells assessed as reduction in MCP1-induced Akt phosphorylation at Thr308/Ser473 residue preincubated for 1 hr followed by MCP1 stimulation for 3 mins by FACS analysis; assay type: cell-based
[5] = molecular target: T1, Phosphatidylinositol 4,5-bisphosphate 3-kinase catalytic subunit gamma isoform; test: Inhibition of PI3Kgamma (unknown origin) using PIP2 as substrate measured after 15 mins in presence of [33P]ATP by scintillation counting method

T1 sequence (P48736 whole entry, canonical isoform): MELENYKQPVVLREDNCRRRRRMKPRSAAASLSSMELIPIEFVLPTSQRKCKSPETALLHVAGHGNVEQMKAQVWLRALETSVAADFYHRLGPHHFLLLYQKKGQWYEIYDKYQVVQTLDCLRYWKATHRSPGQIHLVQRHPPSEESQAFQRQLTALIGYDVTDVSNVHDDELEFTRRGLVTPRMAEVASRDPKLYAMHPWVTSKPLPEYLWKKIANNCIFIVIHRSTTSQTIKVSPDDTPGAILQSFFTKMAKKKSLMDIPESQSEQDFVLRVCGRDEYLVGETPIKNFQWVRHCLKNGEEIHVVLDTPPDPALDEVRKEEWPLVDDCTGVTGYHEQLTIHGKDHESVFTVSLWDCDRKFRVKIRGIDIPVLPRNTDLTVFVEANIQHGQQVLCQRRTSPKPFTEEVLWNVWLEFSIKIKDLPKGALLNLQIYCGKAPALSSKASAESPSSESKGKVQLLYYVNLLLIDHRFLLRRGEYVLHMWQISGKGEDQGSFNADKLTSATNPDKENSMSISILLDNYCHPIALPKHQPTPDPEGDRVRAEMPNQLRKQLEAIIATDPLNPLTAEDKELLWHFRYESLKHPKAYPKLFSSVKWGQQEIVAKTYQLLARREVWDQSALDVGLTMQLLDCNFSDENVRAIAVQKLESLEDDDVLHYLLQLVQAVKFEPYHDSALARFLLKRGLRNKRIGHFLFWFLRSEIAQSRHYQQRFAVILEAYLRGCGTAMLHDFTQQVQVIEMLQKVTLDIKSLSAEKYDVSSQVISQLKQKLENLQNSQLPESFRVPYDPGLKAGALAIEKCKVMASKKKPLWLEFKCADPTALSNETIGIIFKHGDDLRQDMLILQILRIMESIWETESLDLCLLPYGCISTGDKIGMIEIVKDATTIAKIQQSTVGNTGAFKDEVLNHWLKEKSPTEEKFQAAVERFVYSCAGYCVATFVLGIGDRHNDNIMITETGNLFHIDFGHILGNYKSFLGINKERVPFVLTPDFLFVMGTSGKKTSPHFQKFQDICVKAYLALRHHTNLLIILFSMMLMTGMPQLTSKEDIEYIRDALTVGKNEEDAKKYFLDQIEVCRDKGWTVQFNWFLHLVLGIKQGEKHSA

## COc1cc(-c2ccc3c(n2)CN(c2cnn(CC(F)(F)F)c2)C3=O)cnc1OC
Homo sapiens [1]
  Ratio IC50: 13
Homo sapiens [2]
  Ratio IC50: 65
Homo sapiens [3]
  Ratio IC50: 31
[4]
  pIC50: 7.33

## COc1cc(-c2cc3c(c(C)n2)C(=O)N(c2cnn(CC(F)(F)F)c2)C3)cnc1OC
Homo sapiens [1]
  Ratio IC50: 6
Homo sapiens [2]
  Ratio IC50: 15
Homo sapiens [3]
  Ratio IC50: 8
[4]
  pIC50: 6.57
[5]
  pKi: 7.85
